According to patent US9023853B2, “Janus kinase 2 (JAK2) inhibitor for the treatment of lupus” (Cephalon, Inc., priority 2010, dated 2015):
Several values for one entry are separate records, joined by “and”; a condition that tells them apart may be missing. Equal values may be shown once. Entries after “also recorded” stand apart in the source; their conditions may differ.

How the values were obtained:
Assay type in all cases: in vivo, mouse
[1] = system: anti-dsDNA antibodies; assay: Serum anti-dsDNA ANA ELISA in NZM mice; conditions: for A: Anti-dsDNA IgG, MEAN: NZM group mean; for A: Anti-dsDNA IgG: NZM individual mouse
Description: The measurement of anti-dsDNA and anti-Smith antigen antibodies was done by an in-house generated custom ELISA assay. Chromatin coated plates were purchased from Inova Diagnostics, Inc. Purified bovine thymus dsDNA (Sigma, St. Louis, […].) or purified bovine Smith antigen (GenWay, San Diego, Calif.) were used as coating antigen for the detection of anti-dsDNA and anti-Smith Ag antibodies respectively. Coated plates were washed with Borate Sulfate Saline (BSS) and blocked with BSS containing 1% Bovine Serum Albumin (BSA) and 0.1% Tween-20 detergent. Standard curves were generated using mouse anti-chromatin antibody (Sigma, 2B1) or 25 week old MRL/lpr serum. Mouse anti-dsDNA antibody (Abcam, Cambridge, Mass.), or mouse anti-Smith antigen antibody (Abcam) were used as standards for each assay. Secondary antibody was purchased from Abcam (goat anti-mouse pAb-HRP), the substrate was purchased from Rockland (Gilbertsville, Pa.) (TMB), and stop reaction buffer was generated using 1 mL of concentrated sulfuric acid into 20 mL of dH2O. Developed plates were read using a Victor-X4 spectrophotometer reading at […] with a reference wavelength of 570 nm. For all ANA ELISA assays, values below the limit of detection set by the lowest point along the standard or set by the manufacturer were considered out of range and were not estimated, but assumed the lowest point along the standard curve for that particular assay.
(§1) Age mated, female, NZM or NZW/LacJ, mice were matured for the study of lupus nephritis for a total of 7 months or 210 days at which time urine was collected for proteinuria detection. Mice with 0.5-1.0 mg/ml of urine protein as determined by an optical density-based total protein precipitation assay and cross-checked for 30-300 mg/dl of protein as determined by a stick assay were considered proteinuria positive and selected for study entry. Groups were normalized to contain a Gaussian distribution of proteinuria positive animals (i.e., ⅓ low proteinuria, ⅓ medium, ⅓ high) then randomized between groups before ear marking and taking baseline measures including urine and serum collections. A total of five mice from the total population were randomly selected for baseline kidney histology evaluation. Treatments and tests for each group are as described in FIG. 12. Briefly, with a minimum of 10 mice per group, COMPOUND A was administered at 100 mg/kg or 55 mg/kg, both twice a day and orally. […] Vehicle included 3% DMSO, 10% Solutol and 87% PBS. […] End-stage lupus nephritis was evaluated by histopathology and scored by a board certified pathologist for the assessment of total renal damage in diseased animals using the scoring method described by Smith et al (Smith, Dong et al. 2007). […] Day-98 or “end of treatment/study” represents 310 days of age for the NZM animals.

[2] = system: NZM mice; assay: Survival in NZM lupus model; conditions: for Age (d), MEAN: NZM group mean; for Age: NZM individual mouse (survival; EOS = 310 days of age)
Description: Six week old lupus-prone, female, MRL/lpr (Jackson Labs, #000485) and non-lupus prone control MRL/MpJ (Jackson Labs, #000486) mice were obtained from Jackson Laboratories (Bar Harbor, Me.) at 6-weeks of age. Spontaneous SLE-prone NZBWF1/J (NZM) (catalog no. 100008) female mice and non-lupus prone (within time from of experiment) NZW/LacJ (catalog no. 001058) female mice were obtained from Jackson Laboratories (Bar Harbor, Me.) at 15-weeks of age. All mice were maintained on a […] light/dark cycle, with food and water available ad libitum. All experimental animal procedures were approved by and in accordance to the regulations of the Institutional Animal Care and Use Committee (IACUC) of Cephalon, Inc; approved IACUC protocol #03-040 and #03-03-041.
The NZM strain acts as a mouse model of genetically-driven, progressive, systemic lupus erythematosus (SLE). The evolution of the disease in NZM mice is characterized by an abnormal polyclonal B cell activation with a high production of various autoantibodies, including those directed against DNA and other nuclear antigens, and against cytoskeleton proteins. Elevated circulating immune complexes can lead to fatal glomerulonephritis in older mice.
as §1

[3] = system: NZM mice; assay: Renal histopathology kidney IC-GN scoring in NZM mice; conditions: for B: Glomerular Cellularity / C: Glomerular Necrosis / D: Glomerular Sclerosis / E: Interstitial Infiltration / F: Tubular Atrophy / G: Interstitial Fibrosis / H: Vasculitis: NZM individual mouse; for Glomerular Cellularity / Glomerular Necrosis / Glomerulosclerosis / Interstitial Fibrosis / Interstitial Infiltration / Tubular Atrophy / Vasculitis: NZM kidney score (grade 0-5), mean
Description: For histological analyses, the left kidney and lung (NZM model only) from each animal was removed and fixed in 10% buffered neutral 10% formalin (EMD) for 48 hours on an orbital rocker at 25° C., then washed overnight with running dH2O and stored in 70% ethanol at 4° C. until ready to be processed. Kidney stains used for histological analyses included hematoxylin and eosin (H&E), Periodic Acid Schiff (PAS) and Trichrome stains (Wistar Institute, Philadelphia, Pa.). All 3 stained sections were used by the pathologist for scoring purposes. All histological scoring was performed blinded and by an independent board certified veterinary medical pathologist (Julie Engiles, VMD, DACVP; University of Pennsylvania). Multiple stains were used to determine score values. Images in FIGS. 8, 19 and 20 show worst affected area of section selected blindly by the pathologist.
Kidney IC-GN Scoring Method (Smith, Dong et al. 2007):
1. […]
2. […]
3. […]
4. […]
5. […]
6. […]
7. […]
Also considered effacement of the glomerular tuft by PAS positive, Trichrome negative material necrosis. • Glomerular sclerosis was defined by increased fibroplasia or fibrosis within the glomerular tuft or capsule. […] Pharmacodynamic (PD) Analysis
as §1

[4] = NZM mice, CTX 50 mg/kg once weekly ip

SMILES: O=P1(N(CCCl)CCCl)NCCCO1 (centres unmarked) [CTX, cyclophosphamide, reference compound]
- A: Anti-dsDNA IgG, MEAN ([1]; CTX 50 mpk 1 × wk): 30.9
- A: Anti-dsDNA IgG ([1]; CTX 50 mpk 1 × wk): 13.4 and 6.9 and 22.2 and 13.2 and 40.3 and 9.6 and 65.1 and 52.4 and 24.3 and 61.9
- serum anti-dsDNA ANAs decrease compared to vehicle [1, 4]: 65.3%
- Age (d), MEAN ([2]; CTX 50 mpk 1 × wk): 284.9 days
- Age ([2]; CTX 50 mpk 1 × wk): 227 d and 310 d (7×) and 212 d and 240 d
- survival at EOS [2, 4]: 70%
- B: Glomerular Cellularity ([3]; CTX 50 mpk 1 × wk): ++ (‘++’ moderate (3)); also recorded: + (‘+’ mild (2)); also recorded: − (‘−’ no disease (1))
- C: Glomerular Necrosis ([3]; CTX 50 mpk 1 × wk): ++ (‘++’ moderate (3)) (2×) and − (‘−’ no disease (1)) (3×) and + (‘+’ mild (2)) (3×) and _
- D: Glomerular Sclerosis ([3]; CTX 50 mpk 1 × wk): +++ (‘+++’ high (4)); also recorded: − (‘−’ no disease (1)); also recorded: ++ (‘++’ moderate (3)); also recorded: + (‘+’ mild (2))
- E: Interstitial Infiltration ([3]; CTX 50 mpk 1 × wk): + (‘+’ mild (2)) (2×) and − (‘−’ no disease (1)) (5×) and +++ (‘+++’ high (4)) and _
- F: Tubular Atrophy ([3]; CTX 50 mpk 1 × wk): ++++ (‘++++’ severe disease (5)); also recorded: − (‘−’ no disease (1)); also recorded: + (‘+’ mild (2)); also recorded: ++ (‘++’ moderate (3))
- G: Interstitial Fibrosis ([3]; CTX 50 mpk 1 × wk): +++ (‘+++’ high (4)); also recorded: − (‘−’ no disease (1)); also recorded: + (‘+’ mild (2))
- H: Vasculitis ([3]; CTX 50 mpk 1 × wk): + (‘+’ mild (2)); also recorded: − (‘−’ no disease (1))
- Glomerular Cellularity ([3]; CTX 50 mg/kg): 2.0
- Glomerular Necrosis ([3]; CTX 50 mg/kg): 1.77
- Glomerulosclerosis ([3]; CTX 50 mg/kg): 2.11
- Interstitial Fibrosis ([3]; CTX 50 mg/kg): 1.55
- Interstitial Infiltration ([3]; CTX 50 mg/kg): 1.55
- Tubular Atrophy ([3]; CTX 50 mg/kg): 2.00
- Vasculitis ([3]; CTX 50 mg/kg): 1.33

SMILES: C[C@@H]1C[C@H]2[C@@H]3CCC4=CC(=O)C=C[C@]4(C)[C@@]3(F)[C@@H](O)C[C@]2(C)[C@@]1(O)C(=O)CO [Dex, dexamethasone, reference compound]
- A: Anti-dsDNA IgG, MEAN ([1]; Dex 1.5 mpk 3 × wk): 42.7
- A: Anti-dsDNA IgG ([1]; Dex 1.5 mpk 3 × wk): 27.2 and 18.9 and 20.0 and 79.5 and 167.5 and 27.8 and 16.2 and 10.9 and 17.1
- Age (d), MEAN ([2]; Dex 1.5 mpk 3 × wk): 261.4 days
- Age ([2]; Dex 1.5 mpk 3 × wk): 291 d (2×) and 240 d (3×) and 268 d and 310 d (2×)
- B: Glomerular Cellularity ([3]; Dex 1.5 mpk 3 × wk): ++ (‘++’ moderate (3)); also recorded: + (‘+’ mild (2)); also recorded: +++ (‘+++’ high (4))
- C: Glomerular Necrosis ([3]; Dex 1.5 mpk 3 × wk): ++ (‘++’ moderate (3)); also recorded: + (‘+’ mild (2)); also recorded: +++ (‘+++’ high (4))
- D: Glomerular Sclerosis ([3]; Dex 1.5 mpk 3 × wk): +++ (‘+++’ high (4)); also recorded: − (‘−’ no disease (1)); also recorded: ++ (‘++’ moderate (3)); also recorded: ++++ (‘++++’ severe disease (5))
- E: Interstitial Infiltration ([3]; Dex 1.5 mpk 3 × wk): ++ (‘++’ moderate (3)); also recorded: − (‘−’ no disease (1)); also recorded: +++ (‘+++’ high (4))
- F: Tubular Atrophy ([3]; Dex 1.5 mpk 3 × wk): +++ (‘+++’ high (4)); also recorded: − (‘−’ no disease (1))
- G: Interstitial Fibrosis ([3]; Dex 1.5 mpk 3 × wk): +++ (‘+++’ high (4)); also recorded: ++ (‘++’ moderate (3)); also recorded: − (‘−’ no disease (1))
- H: Vasculitis ([3]; Dex 1.5 mpk 3 × wk): + (‘+’ mild (2)); also recorded: − (‘−’ no disease (1)); also recorded: +++ (‘+++’ high (4))
- Glomerular Cellularity ([3]; Dex 1.5 mg/kg): 3.0
- Glomerular Necrosis ([3]; Dex 1.5 mg/kg): 3.0
- Glomerulosclerosis ([3]; Dex 1.5 mg/kg): 3.42
- Interstitial Fibrosis ([3]; Dex 1.5 mg/kg): 2.71
- Interstitial Infiltration ([3]; Dex 1.5 mg/kg): 2.71
- Tubular Atrophy ([3]; Dex 1.5 mg/kg): 3.14
- Vasculitis ([3]; Dex 1.5 mg/kg): 2.42
